Ends that are not written are not given here.
B1: IFNγ: Interferon-gamma (protein, UniProt P01580 23-155, looked up)
Interferon gamma: HGTVIESLESLNNYFNSSGIDVEEKSLFLDIWRNWQKDGDMKILQSQIISFYLRLFEVLKDNQAISNNISVIESHLITTFFSNSKAKKDAFMSIAKFEVNNPQVQRQAFNELIRVVHQLLPESSLRKRKRSRC
B2: IL-4: interleukin (protein, UniProt P07750 21-140, looked up)
Interleukin-4: HIHGCDKNHLREIIGILNEVTGEGTPCTEMDVPNVLTATKNTTESELVCRASKVLRIFYLKHGKTPCLKKNSSVLMELQRLFRAFRCLDSSISCTMNESKSTSLKDFLESLKSIMQMDYS
B3: IL-7: interleukin (protein, UniProt P10168 26-154, looked up)
Interleukin-7: ECHIKDKEGKAYESVLMISIDELDKMTGTDSNCPNNEPNFFRKHVCDDTKEAAFLNRAARKLKQFLKMNISEEFNVHLLTVSQGTQTLVNCTSKEEKNVKEQKKNDACFLKRLLREIKTCWNKILKGSI
B4: IL-11: interleukin (protein, UniProt P20809 22-199, looked up)
Interleukin-11: PGPPPGPPRVSPDPRAELDSTVLLTRSLLADTRQLAAQLRDKFPADGDHNLDSLPTLAMSAGALGALQLPGVLTRLRADLLSYLRHVQWLRRAGGSSLKTLEPELGTLQARLDRLLRRLQLLMSRLALPQPPPDPPAPPLAPPSSAWGGIRAAHAILGGLHLTLDWAVRGLLLLKTRL
B5: IL-18: interleukin (protein, UniProt P70380 36-192, looked up)
Interleukin-18: NFGRLHCTTAVIRNINDQVLFVDKRQPVFEDMTDIDQSASEPQTRLIIYMYKDSEVRGLAVTLSVKDSKMSTLSCKNKIISFEEMDPPENIDDIQSDLIFFQKRVPGHNKMEFESSLYEGHFLACQKEDDAFKLILKKKDENGDKSVMFTLTNLHQS
B6: MIP-1 α: chemokine (protein, UniProt P10147 24-92, looked up)
C-C motif chemokine 3: SLAADTPTACCFSYTSRQIPQNFIADYFETSSQCSKPGVIFLTKRSRQVCADPSEEWVQKYVSDLELSA
B7: KC: chemokine (protein, UniProt P12850 25-96, looked up)
Growth-regulated alpha protein: APIANELRCQCLQTMAGIHLKNIQSLKVLPSGPHCTQTEVIATLKNGREACLDPEAPLVQKIVQKMLKGVPK
B8: IL-2: Interleukin 2 (protein, UniProt P04351 21-169, looked up)
Interleukin-2: APTSSSTSSSTAEAQQQQQQQQQQQQHLEQLLMDLQELLSRMENYRNLKLPRMLTFKFYLPKQATELKDLQCLEDELGPLRHVLDLTQSKSFQLEDAENFISNIRVTVVKLKGSDNTFECQFDDESATVVDFLRRWIAFCQSIISTSPQ

What was measured:
[1] = system: freshly isolated dendritic cells (CD11c+ splenocytes); test: Dendritic cell (DC) assay: IL12 release from freshly isolated dendritic cells; type: cell-based, BALB/c mice; conditions: for DC mIL12 Release: tested for synergism and inhibition
Excerpt: In a preferred embodiment, dendritic cell (DC) assay is used to follow interleukin-12 (IL-12) release from freshly isolated dendritic cells as an index of DC activation (see section 12.3). […] Briefly, by way of example but not limitation, a DC assay can be carried out as follows: freshly isolated dendritic cells (CD11c^+ splenocytes, e.g., isolated from the spleens of BALB/c mice within ten hours of assaying the activity) are suspended at a density of 0.5×10^6 cells per mL in cytokine supplemented culture media (GM-CSF, 1.0 ng/ml; IL-4, 1.0 ng/ml; IFNg, 3.0 ng/ml; anti mouse CD40, 0.5 mg/ml). […] Mouse IL-12 release from the dendritic cells (CD11c^+ splenocytes) is then measured using ELISA.
To follow the activity in semi-purified preparations of BEX, an assay which follows IL12 release from freshly isolated dendritic cells (DCs) as an index of DC activation was developed. This activity is highly correlated with both NK-CMC in vitro and anti-tumor activity in vivo.
DCs were isolated from the spleens of male BALB/c mice 8-12 weeks of age (Harlan Bioproducts for Science, Indianapolis, Ind.), using the magnetic assisted cell separation (MACS) system purchased from Miltenyi Biotech. In summary: Spleens were aseptically removed from mice and placed into a petri dish containing 5 mL holding media (DMEM/F12 supplemented with 10% FCS and antibiotics). Each spleen was then injected with ˜0.5 mls collagenase D solution (1 mg/mL in 10 mM Hepes-NaOH, pH 7.4, 150 mM NaCl, 5 mM MgCl2, 1.8 mM CaCl2), placed into 5-10 mL collagenase D, cut into 5-6 pieces and incubated at 37° C. for 45-60 min. Collagenase-digested spleens were then processed with glass slides and passed through a 70 μm nylon mesh cell strainer. After the strainer was flushed with 40 mL culture media, cells were centrifuged (8 min @ 200×G), suspended in 1 mL PBS and subjected to red blood cell lysis by incubating the cell suspension for 5 min at room temperature in 10 mL lysis buffer (155 mM NH4Cl, 10 mM KHCO3, 0.1 mM EDTA), followed by dilution in PBS to 50 mL and centrifugation (8 min @ 200×g). The splenocytes were then suspended in 10 mL MACS buffer (PBS pH 7.2, supplemented with 2 mM EDTA and 0.5% BSA), passed through a 40 μm nylon mesh cell strainer which was flushed with 40 mL MACS buffer. A preliminary cell count was taken at this time, prior to centrifugation (8 min @ 200×G). The splenocytes were suspended at a density of 10^8 cells per 400 μL MACS buffer. Paramagnetic MicroBeads coated with anti-CD11c^+ antibody were mixed with the splenocyte suspension (100 μL per 10^8 cells), incubated at +4° C. for 15 min, washed, suspended in 1.0 mL MACS buffer and passed through a MS+ separation column placed within a strong magnetic field. CD11c^+ cells were retained in the column whereas CD11c^− cells were washed off the column as the flow-through cell fraction. CD11c^+ cells were then collected by removing the column out of the magnetic field and flushing the column twice with 1 mL of MACS buffer. CD11c^+ cells were washed once with culture media and suspended at a density of 0.5×10^6 cells per mL in cytokine supplemented culture media {DMEM/F12 supplemented with 10% FCS and gentamicin containing mouse GM-CSF (1 ng/mL), mouse IL-4 (1 ng/mL), mouse IFNγ (3 ng/mL) and anti mouse CD40 (0.5 mg/mL)}.
Mouse IL12 release from CD11c^+ splenocytes was measured using ELISA. Briefly, CD11c+ cell culture supernatants were sampled following an overnight incubation (usually 15-18 hrs). Media samples ([…]) were added to ELISA plates coated with anti mouse IL12 (p70) capture antibody (R&D #MAB419; 250 ng in 100 μL per well) and incubated either at 37° C. or room temperature for 2 hrs. The ELISA plates were washed extensively with wash buffer after which 100 μL per well of detection antibody/detection reagent (biotinylated anti-mouse IL12; R&D #BAF419 at 50 ng/mL and streptavidin-HRP) was added. […]

[2] = system: Mouse sarcoma 180 cells; test: NK cell-mediated cytotoxicity (NK-CMC) assay, LGL/S180 co-culture; type: cell-based; conditions: for NK-CMC Activity: wide range of concentrations, presence and absence of IL-2 (125 U/ml)
Experimental: In one embodiment, a NK cell assay is used to assess ARP-induced cytotoxic activity of NK-like cells (see section 12.2). Briefly, by way of example but not limitation, a NK cell assay can be carried out as follows: large granular lymphocytes (LGLs) are co-cultured with tumor cells at various ratios (effector to target ratio) for four days at 37° C., 5% CO2. […] The culture is terminated at the end of day 4 and vitally stained using a MTT cell viability quantification assay (see Mossman, T. J. Immunol. Methods 65: 55 (1983); and Sigma Chemical MTT (M5655) product application note). Culture media is aspirated and the remaining cells are washed and replaced with DMEM/F12 plus FCS, containing MTT. The cells are further incubated for 4-5 hours at 37° C. Absorbance is measured with the aid of a plate reader. Decreased absorbance indicated a decrease in the number of viable cells per well (i.e., cytotoxicity). Absorbance is measured again after the MTT is solubilized by replacement of the medium with 2-propanol containing HCl, which gives a uniform color throughout the well. NK-inducing activity is calculated relative to negative (PBS/BSA) and positive (internal standard) controls.
Spleens (10-15 per experiment) were aseptically removed from male Balb/C mice 6-10 weeks of age. Splenocytes were “squeezed” out of spleens using 2 sterile glass microscope slides. Cells were collected in approximately 10 ml of DMEM/F 12 containing 10% fetal calf serum (FCS) and gentamicin (50 μg/ml). Single cell suspensions were generated by passing collected cells through a 70 μm nylon mesh screen. After washing the cell pellet once with PBS (centrifuged at 675×g for 5 min), red blood cells were lysed by brief hypotonic shock (i.e. exposure to sterile distilled, deionized water, followed immediately with appropriate volumes of 10×PBS to return to isotonicity). Remaining cells were centrifuged and resuspended in DMEM/F12+10% FCS and transferred to 75 cm^2 flasks each containing 25 mls DMEM/F12+10% FCS (cells from 5 spleens per flask). The cells were incubated for 60 min. at 37° C. to selectively remove readily adherent cells (mainly fibroblasts and macrophages). After the incubation, the flasks were gently shaken and the non-adherent cells were removed, pelleted by centrifugation, and resuspended in DMEM/F12 (no supplements) (1.0 mL/10^8 cells). A 1.0 mL volume of these cell suspensions were carefully layered onto a 70%/60%/40% (2 mL/4 mL/4 mL) Percoll™ gradients in 15 ml centrifuge tubes and centrifuged for 30 min at 675×G. The cells which sediment at the 40/60 interface represent primarily large granular lymphocytes (LGLs), enriched with NK cells. These cells were carefully removed with a pasteur pipet, centrifuged, washed once with PBS and resuspended in approximately 5 mL DMEM/F12 supplemented with gentamicin (50 μg/mL) and 10% fetal calf serum. Cell counts and appropriate dilutions of LGL cells were made with these cells, as described below. For convenience this LGL cell preparation is interchangeably referred to as NK cells.
Mouse sarcoma 180 cells were seeded into 96 well plates at a density of 5×10^3 cells per well in 100 μl DMEM/F12, supplemented with 10% FCS and gentamicin (50 μg/mL). […] NK cells were added in 100 μL of supplemented DMEM/F12 at designated densities: 0 NK cells/well; 5×10^4 NK cells/well (1:10 target/effector ratio); 1.25×10^5 NK cells/well (1:25 target/effector ratio); 2.5×10^5 NK cells/well (1:50 target/effector ratio); and, 5×10^5 NK cells/well (1:100 target/effector ratio). (Note: routinely, only the 1:50 and 1:100 ratios were used for screening purposes. IL2 was added as a media supplement with final concentration of 125 U/mL.). Co-cultures were incubated for 4 days at 37° C., 5% CO2, and terminated and vitally stained using a MTT cell viability quantification assay (see Mossman, T. J. Immunol. Methods 65:55 (1983); and Sigma Chemical MTT (M5655) product application note). […]

Molecule | NK-CMC Activity [2] | DC mIL12 Release [1] | other results
N[C@@H](CCC(=O)N[C@@H](CS)C(=O)NCC(=O)O)C(=O)O [reduced glutathione] |  |  | effect on responses in the DC assay ([1]; excess added to the assay system): lowered the responses
Cecropin A: defensin / anti-microbial peptide (KWKLFKKIEKVGQNIRDGIIKAGPAVAVVGQATQIAK; UniProt P01507 27-63, looked up) | − |  | 
Cecropin B: defensin / anti-microbial peptide (KWKVFKKIEKMGRNIRNGIVKAGPAIAVLGEAKAL; ends and bridges not checked; UniProt P01508 27-61, looked up) | − |  | 
Cecropin P1 | − |  | 
FGFbasic: growth factor | − | − | 
IFN α | − |  | 
IL-1 β: interleukin | −^3 | − | 
IL-5: interleukin | − | − | 
IL-6: interleukin | − | − | 
IL-15: interleukin | − |  | 
JE/MCP-1: chemokine | − |  | 
Magainin I | − |  | 
Magainin II | − |  | 
TGF α: growth factor | − |  | 
TGF β | − | − | 
TNF α |  | − | 
truncated molecule lacking GEADTQAWDTSVREWLVDT: E. tenella ARP with start codon moved to the 21th position (listed as Eimeria tenella) |  |  | DC-activity compared to full-length ARP ([1]; recombinant E. tenella ARP variants): activity was lost
B1 |  | − | NK-CMC on direct addition ([2]; added directly to NK/S180 co-cultures): slight increase; maximal response in the presence of IL-2 ([2]; table footnote): ^6Weakly activates NK cells in the presence of IL-2 (maximal response <50% cytotoxicity).
B2 | − |  | 
B3 | − |  | 
B4 | − |  | 
B5 |  | − | 
B6 | − |  | 
B7 | − |  | 
B8 |  | − | 

Reference: patent US8257714B2, “Compositions and methods for immunotherapy of cancer and infectious diseases” (priority 2003, dated 2012)
